# Molecular target: T1, CDK4/cyclin D3 (Homo sapiens, UniProt P11802)
# T1 construct: purchased Carna Biosciences, Inc. QS S Assist CDK4/Cyclin D3_FP Kit
# Experiment: Human CDK4/cyclin D3 inhibitory activity (QS S Assist CDK4/Cyclin D3_FP Kit, IMAP fluorescence polarization)
# Assay type: biochemical
# Conditions: 50% inhibitory concentration against CDK4/cyclin D3, given as class symbol
# Description: Human CDK4/Cyclin D3 Inhibitory Activity
# Each compound was analyzed for CDK4/cyclin D3 inhibitory activity with an assay kit (QS S Assist CDK4/Cyclin D3_FP Kit, available from Carna Biosciences, Inc.). This assay kit determines kinase activity on the basis of the IMAP technology by Molecular Devices. Specifically, the kinase activity is determined through quantification of a variation in fluorescent polarization caused by binding of a kinase-phosphorylated fluorescent substance to an IMAP-binding reagent.
# Each solution was prepared with the 10× assay buffer attached to the kit or a separately prepared assay buffer having the same composition as the assay buffer attached to the kit. An assay buffer was prepared by 10-fold dilution of the 10× assay buffer with distilled water. The assay buffer contains 20 mM HEPES (pH 7.4), 0.01% Tween20, and 2 mM dithiothreitol. A test compound solution was prepared by dilution of the test compound with dimethyl sulfoxide (DMSO) to a concentration 100 times higher than the final concentration and then 25-fold dilution with the assay buffer to a concentration four times higher than the final concentration. An ATP/substrate/Metal solution was prepared by five-fold dilution of the 5×ATP/substrate/Metal solution attached to the kit with the assay buffer. An enzyme solution was prepared by dilution of the CDK4/cyclin D3 attached to the kit with the assay buffer to a concentration twice higher than the final concentration (final concentration of CDK4/cyclin D3:12.5 to 25 ng/well). A detection reagent was prepared by five-fold dilution of each of 5× IMAP-binding buffer A and 5×IMAP-binding buffer B with distilled water, mixing of IMAP-binding buffer A with IMAP-binding buffer B at a ratio of 85:15, and 400-fold dilution of the IMAP-binding reagent with the mixed buffer.
# The test compound solution (5 μL/well) and the ATP/substrate/Metal solution (5 μL/well) were added to a 384-well plate, and the enzyme solution or the assay buffer (10 μL/well) was added to the plate (total amount of the reaction mixture: 20 μL/well) for initiation of enzymatic reaction. […] The reaction was performed at room temperature for 45 minutes, and the detection reagent (60 μL/well) was then added to the plate, followed by further reaction for 30 minutes at room temperature under light shielding conditions. Subsequently, fluorescent polarization was determined with a microplate reader at an excitation wavelength of 485 nm and an emission wavelength of 535 nm.
# The percent inhibition of enzyme activity was calculated for each test compound (note: enzyme activity=100% in the case of addition of the enzyme solution and addition of DMSO instead of the test compound solution, whereas enzyme activity=0% in the case of addition of the assay buffer instead of the enzyme solution, and addition of DMSO instead of the test compound solution). The percent inhibition of enzyme activity was fitted to a dose-response curve, to determine a 50% inhibitory concentration against CDK4/cyclin D3.
# In each table, “+++” corresponds to IC50<10 nM, “++” 10 nM≤IC50<100 nM, and “+” 100 nM≤IC50.
# T1 sequence (P11802 whole entry): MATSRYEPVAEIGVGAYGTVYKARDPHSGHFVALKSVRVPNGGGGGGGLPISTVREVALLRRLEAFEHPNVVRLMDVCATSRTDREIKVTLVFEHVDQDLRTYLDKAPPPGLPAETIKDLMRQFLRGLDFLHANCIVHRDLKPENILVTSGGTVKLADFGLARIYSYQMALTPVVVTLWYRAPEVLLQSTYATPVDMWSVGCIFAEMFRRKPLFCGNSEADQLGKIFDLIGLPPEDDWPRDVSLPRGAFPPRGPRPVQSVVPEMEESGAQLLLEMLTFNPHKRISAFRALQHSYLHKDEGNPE
# T1 sequence (P30281 whole entry partner): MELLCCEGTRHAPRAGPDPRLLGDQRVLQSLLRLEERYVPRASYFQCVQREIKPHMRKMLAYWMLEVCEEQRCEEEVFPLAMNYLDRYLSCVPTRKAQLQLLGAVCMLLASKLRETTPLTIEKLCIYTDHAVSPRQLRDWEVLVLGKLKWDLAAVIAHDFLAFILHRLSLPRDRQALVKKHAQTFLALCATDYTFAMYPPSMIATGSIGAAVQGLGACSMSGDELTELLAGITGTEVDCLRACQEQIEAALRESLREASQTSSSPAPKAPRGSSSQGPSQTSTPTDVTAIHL
row,IC50 [nM],SMILES
1,10 to 100,CO[C@H](C)c1cc2cnc(Nc3ccc(N4CCN(CCCC(=O)O)CC4)nn3)nc2c(NC(C)C)n1 [Compound 699]
2,< 10,CC(C)Nc1nc([C@@H](C)O)cc2cnc(Nc3ccc(N4CC(F)(CO)C4)nn3)nc12 [Compound 707]
3,< 10,"CC(C)Nc1nc(C(C)O)cc2cnc(Nc3ccc(N4CCC(O)C(C)C4)nn3)nc12 (single isomer, unassigned) [Compound 704]"
4,< 10,CC(C)Nc1nc([C@@H](C)O)cc2cnc(Nc3ccc(N4CCC(C)(CO)CC4)nn3)nc12 [Compound 688]

# Same assay, conditions: Human CDK4/cyclin D3 inhibitory activity; read-out: CDK4 Activity symbol
row,SMILES,IC50 [nM]
1,COC(C)c1cc2cnc(Nc3ccc(O[C@@H]4CCNC[C@H]4F)cn3)nc2c(NC(C)C)n1 (relative stereo) [Compound 459],< 10
2,COC(C)c1cc2cnc(Nc3ccc(CN4CCNCC4)cn3)nc2c(NCCN2CCNC2=O)n1 (stereo not drawn) [Compound 393],10 to 100
3,CO[C@H](C)c1cc2cnc(Nc3ccc(N4CCC(F)CC4)cn3)nc2c(NC(C)C)n1 [Compound 469],10 to 100
4,COC(C)c1cc2cnc(Nc3ccc(CN4CCNCC4)cn3)nc2c(Nc2ccc(C(=O)O)cc2)n1 (stereo not drawn) [Compound 448],≥ 100
5,COC(C)c1cc2cnc(Nc3ccc(CN4CCNCC4)cn3)nc2c(NCCC2CCOCC2)n1 (stereo not drawn) [Compound 428],< 10
6,COC(C)c1cc2cnc(Nc3ccc(CN4CCNCC4)cn3)nc2c(NC2CCCN(C)C2)n1 (stereo not drawn) [Compound 407],10 to 100
7,COC(C)c1cc2cnc(Nc3ccc(CN4CCNCC4)cn3)nc2c(N(C)C(C)C)n1 (stereo not drawn) [Compound 391],10 to 100
8,COC(C)c1cc2cnc(Nc3ccc(CN4CCNCC4)cn3)nc2c(NCC(C)C)n1 (stereo not drawn) [Compound 392],< 10
9,CO[C@H](C)c1cc2cnc(Nc3ccc(CN4CCNCC4)cn3)nc2c(NC2CCS(=O)(=O)CC2)n1 [Compound 361],< 10
10,COC(C)c1cc2cnc(Nc3ccc(CN4CCNCC4)cn3)nc2c(NCC2(C)CC(O)CC(C)(C)C2)n1 (stereo not drawn) [Compound 454],< 10
11,COC(C)c1cc2cnc(Nc3ccc(CN4CCNCC4)cn3)nc2c(Nc2ccc(C#N)cc2)n1 (stereo not drawn) [Compound 401],10 to 100
12,COC(C)c1cc2cnc(Nc3ccc(CN4CCNCC4)cn3)nc2c(Nc2ccc(F)cc2)n1 (stereo not drawn) [Compound 446],10 to 100
13,O[C@H]1CC[C@@H](Nc2nc(C(F)F)cc3cnc(Nc4ccc(N5CCNCC5)nn4)nc23)CC1 [Compound 425],< 10
14,COCC(C)(C)Nc1nc([C@@H](C)O)cc2cnc(Nc3ncc(N4CCNCC4)cn3)nc12 [Compound 375],≥ 100
15,CO[C@H](C)c1cc2cnc(Nc3ccc(N4C5CCC4CNC5)cn3)nc2c(NC(C)C)n1 [Compound 500],< 10
16,COC(C)c1cc2cnc(Nc3ccc(CN4CCNCC4)cn3)nc2c(NC2(CO)CCOCC2)n1 (stereo not drawn) [Compound 433],10 to 100
17,CO[C@H](C)c1cc2cnc(Nc3ccc(N4CC5(CCNC5)C4)cn3)nc2c(NC(C)C)n1 [Compound 479],< 10
18,CO[C@H](C)c1cc2cnc(Nc3ccc(N4CCN[C@H](C)C4=O)cn3)nc2c(NC(C)C)n1 [Compound 462],10 to 100

row,SMILES,IC50 [nM]
1,CC1(C)NCCN(c2ccc(Nc3ncc4cc(C(F)F)nc(NC5CCOCC5)c4n3)nc2)C1=O [Compound 439],10 to 100
2,CC(C)Nc1nc(C(F)F)cc2cnc(Nc3ccc(N4CCNC(C)(C)C4=O)cn3)nc12 [Compound 438],< 10
3,COC(C)c1cc2cnc(Nc3ccc(CN4CCNCC4)cn3)nc2c(NCc2ccc(=O)[nH]c2)n1 (stereo not drawn) [Compound 416],10 to 100
4,CO[C@H](C)c1cc2cnc(Nc3ccc(N(C)C(=O)C4CCNCC4)cn3)nc2c(NC(C)C)n1 [Compound 377],10 to 100
5,COC(C)c1cc2cnc(Nc3ccc(N4CCCNCC4)cn3)nc2c(NC(C)C)n1 (stereo not drawn) [Compound 453],< 10
6,COC(C)c1cc2cnc(Nc3ccc(CN4CCNCC4)cn3)nc2c(NCC(C)(C)C)n1 (stereo not drawn) [Compound 418],< 10
7,CO[C@H](C)c1cc2cnc(Nc3ccc(N4CCNC(C)(C)C4=O)cn3)nc2c(NC(C)C)n1 [Compound 444],≥ 100
8,COC(C)c1cc2cnc(Nc3ccc(CN4CCNCC4)cn3)nc2c(N[C@H]2CC[C@@](C)(C(=O)O)CC2)n1 (stereo partly drawn) [Compound 437],≥ 100
9,CC(C)Nc1nc([C@@H](C)O)cc2cnc(Nc3ccc(CC(=O)N4CCN(CCO)CC4)cn3)nc12 [Compound 616],< 10
10,COC(C)c1cc2cnc(Nc3ccc(CN4CCNCC4)cn3)nc2c(NC(C)C2CCCO2)n1 (stereo not drawn) [Compound 409],< 10
11,CC(C)Nc1nc(C(F)F)cc2cnc(Nc3ccc(C4CCOCC4)cn3)nc12 [Compound 160],< 10
12,CO[C@H](C)c1cc2cnc(Nc3ccc(OC4CC5CCC(C4)N5)cn3)nc2c(NC(C)C)n1 (stereo partly drawn) [Compound 504],< 10
13,COC(C)c1cc2cnc(Nc3ccc(CN4CCNCC4)cn3)nc2c(NCC2COC2)n1 (stereo not drawn) [Compound 396],≥ 100
14,COc1cccc(Nc2nc(C(C)OC)cc3cnc(Nc4ccc(CN5CCNCC5)cn4)nc23)c1 (stereo not drawn) [Compound 451],< 10
15,COC(C)c1cc2cnc(Nc3ccc(CN4CCNCC4)cn3)nc2c(NC2CCC(O)C2)n1 (stereo not drawn) [Compound 427],< 10
16,C[C@@H](O)c1cc2cnc(Nc3ccc(N4CCNC(C)(C)C4=O)cn3)nc2c(NC2CCOCC2)n1 [Compound 441],≥ 100
17,COC(C)c1cc2cnc(Nc3ccc(CN4CCNCC4)cn3)nc2c(NC2CCCC2)n1 (stereo not drawn) [Compound 417],< 10

# Results, then the compound that gave them:
row,IC50 [nM],SMILES
1,< 10,CO[C@H](C)c1cc2cnc(Nc3ccc(NC4CC5(CNC5)C4)cn3)nc2c(NC(C)C)n1 [Compound 485]
2,< 10,CO[C@H](C)c1cc2cnc(Nc3ccc(CN4CCC(O)CC4)cn3)nc2c(NC(C)C)n1 [Compound 494]
3,< 10,CC(C)Nc1nc([C@@H](C)O)cc2cnc(Nc3ccc(N4CCCNCC4)nn3)nc12 [Compound 496]
4,10 to 100,CC(C)Nc1nc([C@@H](C)O)cc2cnc(Nc3ccc(N4CCNCC4=O)nn3)nc12 [Compound 613]
5,< 10,"CC(C)Nc1nc(C(C)O)cc2cnc(Nc3ccc(N4CCCC(O)C4)nn3)nc12 (single isomer, unassigned) [Compound 582]"
6,< 10,CC(C)Nc1nc([C@@H](C)O)cc2cnc(Nc3ccc(N4CCC(O)C(F)(F)C4)nn3)nc12 (stereo partly drawn) [Compound 617]
7,< 10,CO[C@H](C)c1cc2cnc(Nc3ccc(N4CC5(CCNCC5)C4)cn3)nc2c(NC(C)C)n1 [Compound 482]
8,< 10,CC(C)Nc1nc([C@@H](C)O)cc2cnc(Nc3ccc(O[C@@H]4CCNC[C@@H]4F)nn3)nc12 [Compound 564]
9,< 10,CC(C)Nc1nc([C@@H](C)O)cc2cnc(Nc3ccc(N4CCCC(O)C4)nn3)nc12 (stereo partly drawn) [Compound 517]
10,< 10,CO[C@H](C)c1cc2cnc(Nc3ccc(CN4CCNC5(CC5)C4)cn3)nc2c(NC(C)C)n1 [Compound 535]
11,< 10,CC(C)Nc1nc([C@@H](C)O)cc2cnc(Nc3ccc(OC4CCNC4)nn3)nc12 (stereo partly drawn) [Compound 544]
12,< 10,CC(C)Nc1nc([C@@H](C)O)cc2cnc(Nc3ccc(N4CCCN(C)CC4)nn3)nc12 [Compound 490]
13,10 to 100,CNCCCOc1ccc(Nc2ncc3cc([C@@H](C)OC)nc(NC(C)C)c3n2)nn1 [Compound 527]
14,< 10,CO[C@H](C)c1cc2cnc(Nc3ccc(CN4CCCNCC4)cn3)nc2c(NC(C)C)n1 [Compound 493]
15,< 10,CNC1C2CCC1CN(c1ccc(Nc3ncc4cc([C@@H](C)OC)nc(NC(C)C)c4n3)nc1)C2 (stereo partly drawn) [Compound 503]
16,< 10,CC(C)Nc1nc([C@@H](C)O)cc2cnc(Nc3ccc(N4CCN(CC(C)(C)C)CC4=O)cn3)nc12 [Compound 603]
17,< 10,CC(C)Nc1nc([C@@H](C)O)cc2cnc(Nc3ccc(N4CCNC(=O)C4)nn3)nc12 [Compound 540]
18,< 10,CC(C)Nc1nc([C@@H](C)O)cc2cnc(Nc3ccc(OC4CNC4)nn3)nc12 [Compound 546]
19,< 10,CC(C)Nc1nc([C@@H](C)O)cc2cnc(Nc3ccc(N4CC5(CNC(=O)C5)C4)nn3)nc12 [Compound 620]
20,10 to 100,COC(C)c1cc2cnc(Nc3ccc(CN4CCNCC4)cn3)nc2c(NC2CC3(C2)CC(C(=O)O)C3)n1 (stereo not drawn) [Compound 513]
21,< 10,CC(C)Nc1nc([C@@H](C)O)cc2cnc(Nc3ccc(O[C@H]4CCNC[C@@H]4F)nn3)nc12 [Compound 563]

# — patent US10124004B2, “Pyrido[3,4-d]pyrimidine derivative and pharmaceutically acceptable salt thereof” (Teijin Pharma Limited, priority 2015, dated 2018)
